Consider 14 molecules from ChEMBL document CHEMBL6182911, “From Diarylsulfides to Diarylamines: New Ebola Virus Entry Inhibitors with Improved Metabolic Stability” (J Med Chem, 2025).

Active and inactive are the calls of the source. The rule behind the calls is not given here.

Series [1] is described as follows: Cytotoxicity against African green monkey Vero E6 cells assessed as reduction in cell viability incubated for 24 hrs by CellTiter-Glo Luminescent Cell Viability Assay. It is filed as toxicity, cell-based, Vero C1008. To be noted: chlorocebus sabaeus.
For series [2], the system named is Vesicular stomatitis virus. The experiment in a line: Antiviral activity against VSV-G pseudotyped virus infected in African green monkey Vero E6 cells assessed as inhibition of viral infection at 10 uM preincubated with cells for 1 hr followed by viral infection and measured after 24 hrs by luciferase based luminometric analysis. Format: functional, organism-based. As to conditions: time 25.0 hrs.

Series [3] can be described thus: Selectivity index, ratio of CC50 for cytotoxicity against African green monkey Vero E6 cells to EC50 for antiviral activity against VSV-G pseudotyped EBOV-GP Mayinga infected in African green monkey Vero E6 cells. Format: toxicity, cell-based. As to conditions: read-out: Ratio CC50/EC50.
The test system of series [4] is Ebolavirus. In words: Inhibition of cleaved EBOV-GP assessed as disruption of interaction between EBOV-GPcl and Flag-tagged human NPC1 domain C at 50 uM by ELISA.
The test system of series [5] is Ebolavirus. The experiment in a line: Binding affinity to EBOV-GP assessed as appearance of STD signals of aromatic region of compound at ligand to protein concentration molar ratio of 100:1 by STD-NMR analysis.
Series [6] in a line: Selectivity index, ratio of CC50 for cytotoxicity against African green monkey Vero E6 cells to EC50 for antiviral activity against replicative EBOV Mayinga variant infected in African green monkey Vero E6 cells. It is filed as toxicity, cell-based. To be noted: read-out: Ratio CC50/EC50.
Series [7] concerns Ebolavirus. In words: Binding affinity to EBOV-GP assessed as appearance of STD signals of aromatic region of compound at ligand to protein concentration molar ratio of 100:1 in presence of imipramine by STD-NMR analysis.
The test system of series [8] is Ebolavirus. The experiment in a line: Antiviral activity against replicative EBOV Mayinga infected in African green monkey Vero E6 cells assessed as reduction in virus titer in cell culture supernatant incubated for 3 days by immunofocus assay. Format: functional, organism-based.
For series [9], the system named is Ebolavirus. The experiment in a line: Antiviral activity against VSV-G pseudotyped EBOV-GP Mayinga infected in African green monkey Vero E6 cells assessed as inhibition of viral infection preincubated with cells for 1 hr followed by viral infection and measured after 24 hrs by luciferase based luminometric analysis. It is filed as functional, organism-based. To be noted: Orthoebolavirus, Vero C1008.

Consider `O=C(CCNCCc1ccccc1)Nc1ccccc1Sc1cc(Cl)ccc1[N+](=O)[O-]`, for which the CC50 at 24 h in [1] is 250 µM.

For `O=C(CCN1CCCC1)Nc1ccccc1Nc1cc(Cl)ccc1[N+](=O)[O-]`, in series [2], the outcome was inactive.

In the case of `O=C(CNCCC1CCN(Cc2ccccc2)CC1)Nc1ccccc1Nc1cc(Cl)ccc1[N+](=O)[O-]`, the selectivity ratio in [3] is 4.1; in series [6], 2.3. For the same molecule, the outcome in series [2] and in series [7] was inactive. The inhibition result in series [4] was “Active”. In series [5], the outcome was Active.

Regarding `O=C(CCN1CCCC1)Nc1ccccc1Sc1cc(Cl)ccc1[N+](=O)[O-]`, the result in series [2] was inactive. For the same molecule, the 50% effective concentration (EC50) entry in series [8] is given as “Not_active”.

For the molecule `O=C(CN1CCCC1)Nc1ccccc1Sc1cc(Cl)ccc1[N+](=O)[O-]`, in series [1], the CC50 at 24 h was 250 µM. Besides, the EC50 entry in series [8] was “Not_active”.

`NC(=O)c1nc(F)c[nH]c1=O`: the CC50 at 24 h in [1] was greater than 1000 µM. Besides, the selectivity ratio in series [6] stood at 14.9.

As for `CCN(CC)CC(=O)NNc1ccccc1Sc1cc(Cl)ccc1[N+](=O)[O-]`, the EC50 in series [9] stood at 4.02 µM.

On to `O=C(CNCCC1CCN(Cc2ccccc2)CC1)Nc1ccccc1Sc1cc(Cl)ccc1[N+](=O)[O-]`, for which the outcome in [2] was inactive.

In the case of `CCN(CC)CCC(=O)Nc1ccccc1Nc1cc(Cl)ccc1[N+](=O)[O-]`, the outcome in [2] was inactive.

Regarding `CCN(CC)CCC(=O)Nc1ccccc1Sc1cc(Cl)ccc1[N+](=O)[O-]`, the result in series [2] was inactive.

For `CCN(CC)CC(=O)Nc1ccccc1Sc1cc(Cl)ccc1[N+](=O)[O-]`, the CC50 at 24 h in series [1] is 250 µM.

As for `O=C(CNCc1ccccc1)Nc1ccccc1Sc1cc(Cl)ccc1[N+](=O)[O-]`, in series [1], the 50% cytotoxic concentration (CC50) at 24 h was 250 µM.

As to `O=C(CN1CCCC1)NNc1ccccc1Sc1cc(Cl)ccc1[N+](=O)[O-]`, in [9], the EC50 was 2.9 µM.

Consider `O=C(CN1CCCCC1)Nc1ccccc1Sc1cc(Cl)ccc1[N+](=O)[O-]`, for which the CC50 at 24 h in [1] was determined as 250 µM.
